In patent publication US20260125375A1 (Pfizer Inc., priority 2022, published 2026) one finds Ki data, which are given here for 33 compounds.

In the experiment the target is T1, CBL-B (residues 36-427) (Homo sapiens, UniProt Q13191).
T1 construct: Purified CBL-B (residues 36-427) and C-CBL (residues 46-435) proteins from baculovirus-infected insect cells; made in house; host or cells: baculovirus-infected insect cells
Nature of the experiment: Ligand Displacement Assay (LDA), HTRF competitive binding against BODIPY-labeled fluorescent tracer, CBL-B. Particulars: geometric mean of the number of tests, read-out: CBL-B Ki (nM) GMean. The essentials:
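First, the insect-cell-expressed protein is biotinylated at its amino-terminal AviTag with BirA and coupled to SA-Tb. Next, the tracer KD is determined for each protein. Finally, compounds are titrated three-fold in duplicate […], at 2% DMSO, and Ki is reported as a geometric mean.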
On the technique in general: Time-resolved FRET reads energy transfer from a long-lived donor to a nearby acceptor.
What is called Ki is the dissociation constant of the complex between target and ligand, obtained from inhibition or displacement. In the case of `CC(c1nc(C(F)(F)F)cc2c(-c3cccc(C4(Cc5nncn5C)COC4)c3)n[nH]c12)N1CCCCC1` (single isomer, unassigned) [Example C21, 3-(3-{3-[(4-methyl-4H-1,2,4-triazol-3-yl)methyl]oxetan-3-yl}phenyl)-7-[(1ξ)-1-(piperidin-1-yl)ethyl]-5-(trifluoromethyl)-1H-pyrazolo[3,4-c]pyridine], the inhibitory constant (Ki) was found to be 21.3 nM.

Turning to `Cn1cnnc1[C@@H](c1cccc(-c2n[nH]c3c(CN[C@@H]4CCC[C@@H]4O)nc(C(F)(F)F)cc23)c1)C1CCC1` [Example C1, (1S,2R)-2-({[3-{3-[(R)-cyclobutyl(4-methyl-4H-1,2,4-triazol-3-yl)methyl]phenyl}-5-(trifluoromethyl)-1H-pyrazolo[3,4-c]pyridin-7-yl]methyl}amino)cyclopentan-1-ol], the Ki worked out at 0.6 nM.

On to `C[C@H](N[C@H]1CCC(F)(F)C1)c1nc(C(F)(F)F)cc2c(-c3cccc([C@H](c4nncn4C)C4CCC4)c3)n[nH]c12` [Example C8], for which the Ki came to 1.1 nM.

Regarding `C[C@H]1CN([C@@H](C)c2nc(C(F)(F)F)cc3c(-c4cccc(C5(Cc6nncn6C)COC5)c4)n[nH]c23)CCO1` (single isomer, unassigned) [Example D11], the Ki is 7.4 nM.

On to `C[C@@H](NC1CC(F)(F)C1)c1nc(C(F)(F)F)cc2c(-c3cccc([C@H](c4nncn4C)C4CCC4)c3)n[nH]c12` (single isomer, unassigned) [Example D91], for which the Ki was found to be 6.2 nM.

Consider `CC1CN(Cc2nc(C(F)(F)F)cc3c(-c4cccc(C5(Cc6nncn6C)COC5)c4)n[nH]c23)CCC1(F)F` (single isomer, unassigned) [Example C32, 7-{[(3ξ)-4,4-difluoro-3-methylpiperidin-1-yl]methyl}-3-(3-{3-[(4-methyl-4H-1,2,4-triazol-3-yl)methyl]oxetan-3-yl}phenyl)-5-(trifluoromethyl)-1H-pyrazolo[3,4-c]pyridine], for which the inhibitory constant (Ki) came to 6.7 nM.

On to `C[C@H](N[C@H]1CCOC1)c1nc(C(F)(F)F)cc2c(-c3cccc([C@H](c4nncn4C)C4CCC4)c3)n[nH]c12` (single isomer, unassigned) [Example C2], for which the Ki came out at 3.9 nM.

In the case of `C[C@H](N[C@H]1C[C@@H](O)C1)c1nc(C(F)(F)F)cc2c(-c3cccc([C@H](c4nncn4C)C4CCC4)c3)n[nH]c12` (single isomer, unassigned) [Example C36], the inhibitory constant (Ki) stood at 1.8 nM.

As for `Cn1cnnc1[C@@H](c1cccc(-c2n[nH]c3c(CN[C@H]4CCC[C@@H]4O)nc(C(F)(F)F)cc23)c1)C1CCC1` [Example C4, (1S,2S)-2-({[3-{3-[(R)-cyclobutyl(4-methyl-4H-1,2,4-triazol-3-yl)methyl]phenyl}-5-(trifluoromethyl)-1H-pyrazolo[3,4-c]pyridin-7-yl]methyl}amino)cyclopentan-1-ol], the Ki was found to be 3.3 nM.

Turning to `CC1CN(Cc2nc(C(F)(F)F)cc3c(-c4cccc(C5(Cc6nncn6C)COC5)c4)n[nH]c23)CCC1(F)F` (single isomer, unassigned) [Example C31, 7-{[(3ξ)-4,4-difluoro-3-methylpiperidin-1-yl]methyl}-3-(3-{3-[(4-methyl-4H-1,2,4-triazol-3-yl)methyl]oxetan-3-yl}phenyl)-5-(trifluoromethyl)-1H-pyrazolo[3,4-c]pyridine], the inhibitory constant (Ki) came to 21.7 nM.

For `C[C@H](N[C@@H]1CC[C@@H]1O)c1nc(C(F)(F)F)cc2c(-c3cccc([C@H](c4nncn4C)C4CCC4)c3)n[nH]c12` (single isomer, unassigned) [Example D28], the Ki came to 0.7 nM.

On to `C[C@H](NC1CCCC1)c1nc(C(F)(F)F)cc2c(-c3cccc([C@H](c4nncn4C)C4CCC4)c3)n[nH]c12` (single isomer, unassigned) [Example C10], for which the Ki came out at 11.4 nM.

Regarding `C[C@H]1CCCN(Cc2nc(C(F)(F)F)cc3c(-c4cccc(C5(Cc6nncn6C)COC5)c4)n[nH]c23)C1` [Example C30, 7-{[(3S)-3-methylpiperidin-1-yl]methyl}-3-(3-{3-[(4-methyl-4H-1,2,4-triazol-3-yl)methyl]oxetan-3-yl}phenyl)-5-(trifluoromethyl)-1H-pyrazolo[3,4-c]pyridine], the Ki stood at 3.6 nM.

`Cn1cnnc1CC1(c2cccc(-c3n[nH]c4c(CN[C@H]5CCC(F)(F)C5)nc(C(F)(F)F)cc34)c2)COC1` [Example C38, (1S)-3,3-difluoro-N-{[3-(3-{3-[(4-methyl-4H-1,2,4-triazol-3-yl)methyl]oxetan-3-yl}phenyl)-5-(trifluoromethyl)-1H-pyrazolo[3,4-c]pyridin-7-yl]methyl}cyclopentan-1-amine]: the Ki turned out to be 6.9 nM.

Turning to `C[C@@H](N[C@@H]1CCOC1)c1nc(C(F)(F)F)cc2c(-c3cccc([C@H](c4nncn4C)C4CCC4)c3)n[nH]c12` (single isomer, unassigned) [Example D3], the inhibitory constant (Ki) came out at 6 nM.

With `CC(c1nc(C(F)(F)F)cc2c(-c3cccc(C4(Cc5nncn5C)COC4)c3)n[nH]c12)N1CCCCC1` (single isomer, unassigned) [Example C22, 3-(3-{3-[(4-methyl-4H-1,2,4-triazol-3-yl)methyl]oxetan-3-yl}phenyl)-7-[(1ξ)-1-(piperidin-1-yl)ethyl]-5-(trifluoromethyl)-1H-pyrazolo[3,4-c]pyridine], the inhibitory constant (Ki) was 24.1 nM.

Regarding `C[C@@H](c1nc(C(F)(F)F)cc2c(-c3cccc(C4(Cc5nncn5C)COC4)c3)n[nH]c12)N1CC[C@@H](F)C1` (single isomer, unassigned) [Example D9], the Ki was 17.4 nM.

On to `Cn1cnnc1CC1(c2cccc(-c3n[nH]c4ncc(C(F)(F)F)cc34)c2)COC1` [Example B3, 3-(3-{3-[(4-methyl-4H-1,2,4-triazol-3-yl)methyl]oxetan-3-yl}phenyl)-5-(trifluoromethyl)-1H-pyrazolo[3,4-b]pyridine], for which the Ki was 75.3 nM.

Consider `C[C@@H](N[C@H]1C[C@H](O)C1)c1nc(C(F)(F)F)cc2c(-c3cccc([C@H](c4nncn4C)C4CCC4)c3)n[nH]c12` (single isomer, unassigned) [Example C92], for which the Ki came to 4.4 nM.

In the case of `C[C@@H]1CCCN(Cc2nc(C(F)(F)F)cc3c(-c4cccc(C5(Cc6nncn6C)COC5)c4)n[nH]c23)C1` [Example C29, 7-{[(3R)-3-methylpiperidin-1-yl]methyl}-3-(3-{3-[(4-methyl-4H-1,2,4-triazol-3-yl)methyl]oxetan-3-yl}phenyl)-5-(trifluoromethyl)-1H-pyrazolo[3,4-c]pyridine], the Ki worked out at 8.5 nM.

For the compound `C[C@@H](N[C@@H]1CCC(F)(F)C1)c1nc(C(F)(F)F)cc2c(-c3cccc(C4(Cc5nncn5C)COC4)c3)n[nH]c12` (single isomer, unassigned) [Example C18], the inhibitory constant (Ki) was 2.2 nM.

Take `C[C@@H](N[C@@H]1CCC[C@@H]1O)c1nc(C(F)(F)F)cc2c(-c3cccc([C@H](c4nncn4C)C4CCC4)c3)n[nH]c12` (single isomer, unassigned) [Example D16]: the inhibition constant Ki was found to be 2.5 nM.

As for `Cn1cnnc1[C@@H](c1cccc(-c2n[nH]c3cnc(C(F)(F)F)cc23)c1)C1CCC1` [Example A1, 3-{3-[(R)-cyclobutyl(4-methyl-4H-1,2,4-triazol-3-yl)methyl]phenyl}-5-(trifluoromethyl)-1H-pyrazolo[3,4-c]pyridine], the inhibition constant (Ki) stood at 74.4 nM.

As for `C[C@@H](NC1CCCC1)c1nc(C(F)(F)F)cc2c(-c3cccc([C@H](c4nncn4C)C4CCC4)c3)n[nH]c12` (single isomer, unassigned) [Example C11], the Ki was 0.6 nM.

`C[C@H](N[C@H]1CCC(F)(F)C1)c1nc(C(F)(F)F)cc2c(-c3cccc(C4(Cc5nncn5C)COC4)c3)n[nH]c12` (single isomer, unassigned) [Example C12]: the Ki is 0.9 nM.

Regarding `C[C@H]1CN(Cc2nc(C(F)(F)F)cc3c(-c4cccc([C@H](c5nncn5C)C5CCC5)c4)n[nH]c23)CCO1` [Example C6, 3-{3-[(R)-cyclobutyl(4-methyl-4H-1,2,4-triazol-3-yl)methyl]phenyl}-7-{[(2S)-2-methylmorpholin-4-yl]methyl}-5-(trifluoromethyl)-1H-pyrazolo[3,4-c]pyridine], the Ki was 25.8 nM.

Take `C[C@H]1CCCN(Cc2nc(C(F)(F)F)cc3c(-c4cccc([C@H](c5nncn5C)C5CCC5)c4)n[nH]c23)C1` [Example C7, 3-{3-[(R)-cyclobutyl(4-methyl-4H-1,2,4-triazol-3-yl)methyl]phenyl}-7-{[(3S)-3-methylpiperidin-1-yl]methyl}-5-(trifluoromethyl)-1H-pyrazolo[3,4-c]pyridine]: the Ki is 3.7 nM.

With `CC(NC1CNC1)c1nc(C(F)(F)F)cc2c(-c3cccc(C4(Cc5nncn5C)COC4)c3)n[nH]c12` (single isomer, unassigned) [Example C27, N-{(1ξ)-1-[3-(3-{3-[(4-methyl-4H-1,2,4-triazol-3-yl)methyl]oxetan-3-yl}phenyl)-5-(trifluoromethyl)-1H-pyrazolo[3,4-c]pyridin-7-yl]ethyl}azetidin-3-amine], the inhibitory constant (Ki) turned out to be 31.4 nM.

For the compound `C[C@@H](N[C@H]1CC[C@@H]1O)c1nc(C(F)(F)F)cc2c(-c3cccc([C@H](c4nncn4C)C4CCC4)c3)n[nH]c12` (single isomer, unassigned) [Example D22], the Ki stood at 0.8 nM.

As for `C[C@@H](N[C@H]1CCOC1)c1nc(C(F)(F)F)cc2c(-c3cccc([C@H](c4nncn4C)C4CCC4)c3)n[nH]c12` (single isomer, unassigned) [Example C3], the Ki came to 7.8 nM.

`C[C@@H](N[C@H]1CCC(F)(F)C1)c1nc(C(F)(F)F)cc2c(-c3cccc([C@H](c4nncn4C)C4CCC4)c3)n[nH]c12` [Example C9]: the inhibition constant Ki was determined as 5 nM.

With `Cn1cnnc1[C@@H](c1cccc(-c2n[nH]c3c(CNC4CCCC4)nc(C(F)(F)F)cc23)c1)C1CCC1` [Example D4], the inhibition constant (Ki) was determined as 5.1 nM.

As to `C[C@H](c1nc(C(F)(F)F)cc2c(-c3cccc(C4(Cc5nncn5C)COC4)c3)n[nH]c12)N1CCO[C@@H](C)C1` (single isomer, unassigned) [Example D12], the Ki came out at 15.3 nM.
